Patent US20230263851A1, “PROTECTIVE FORMULATIONS” (priority 2022, published 2023)

Test system: upside-down jellyfish, family Cassiopeidae
Experiment: In vivo field study: perceived stinging sensation after contact with upside-down jellyfish
Conditions: for Sting score, Upper arm, left: skin location upper arm; for Average Sting Score: average over tested skin locations; for Reduction of the stinging sensation (in words): summary of the field study; for Sting score, Left calf: skin location left calf; for Sting score, Lower arm, left: perceived sting: 0 no sting, compound in SPF15 TeekaTan oil-in-water sunscreen base, skin location lower arm
Procedure: An in-vivo field study was performed using upside-down jellyfish, family Cassiopeidae. Rubidium iodide and dl-menthol were compared to lanthanide salts and another alkali salt, cesium iodide, for their ability to reduce the dermal irritation following contact with stinging Cnidaria. The base formulation was a commercial SPF15 “TeekaTan™” chemical oil-in-water sunscreen. The null was bare skin. The test subjects reported their perceived stinging sensation from the venomous cassiosomes as no sting (score 0), mild sting (score 1), definite sting (score 2).

[1] = 0 no sting, 1 mild sting, 2 definite sting, SPF15 sunscreen base

| SMILES | Sting score, Upper arm, left [1] | Average Sting Score [1] | Reduction of the stinging sensation (in words) | Sting score, Left calf [1] | Sting score, Left cheek (face) (0 no sting, 1 mild sting, 2 definite sting, SPF15 sunscreen base, skin location left cheek (face)) | Sting score, Left side of chest, underarm (0 no sting, 1 mild sting, 2 definite sting, SPF15 sunscreen base, skin location left side of chest, underarm) | Sting score, Left side of lips, upper and lower (0 no sting, 1 mild sting, 2 definite sting, SPF15 sunscreen base, skin location left side of lips, upper and lower) | Sting score, Right arm joint (0 no sting, 1 mild sting, 2 definite sting, SPF15 sunscreen base, skin location right arm joint) | Sting score, Right cheek (face) (0 no sting, 1 mild sting, 2 definite sting, SPF15 sunscreen base, skin location right cheek (face)) | Sting score, Right side of chest, underarm (0 no sting, 1 mild sting, 2 definite sting, SPF15 sunscreen base, skin location right side of chest, underarm) | Sting score, Stomach (0 no sting, 1 mild sting, 2 definite sting, SPF15 sunscreen base, skin location stomach) | Sting score, Lower arm, left (1 mild sting, 2 definite sting) | Sting score, Left arm joint (0 no sting, 1 mild sting, 2 definite sting, SPF15 sunscreen base, skin location left arm joint) |
| --- | --- | --- | --- | --- | --- | --- | --- | --- | --- | --- | --- | --- | --- |
| [Cs+].[I-] [CsI, cesium iodide, reference compound] | 2 | 2.00 | did not appreciably reduce the stinging sensation |  |  |  |  |  |  |  |  |  |  |
| CC(C)[C@@H]1CC[C@@H](C)C[C@H]1O (racemic) [DL-Menthol, DL menthol] |  | 0.23 | second most effective compound tested | 0 | 0 | 0 | 0 | 0.75 | 0 | 0 | 0 | 0 |  |
| [Cl][Pr]([Cl])[Cl] [PrCl3, reference compound] | 0 | 1.00 |  |  |  |  |  |  |  |  |  | 2 |  |
| [I-].[Rb+] [RuI, rubidium iodide] | 0 | 0.00 |  | 0 |  |  |  |  |  |  |  | 0 | 0 |
| [Cl][Nd]([Cl])[Cl] [NdCl3, reference compound] |  | 2.00 |  |  |  |  |  |  |  |  |  | 2 |  |
